{
  "source": "patent US12005044B1",
  "about": "“Treatment of autism spectrum disorders with ergothioneine, selenoneine, or combinations thereof” (Autism Therapeutics Inc., priority 2022, dated 2024)",
  "key": {"[1]": {"settings": "EFSA Panel; cited from earlier work"}, "ASD individuals": {"system": "ASD individuals", "experiment": "CARS-2 scoring of ASD individuals before and after three months of ET dietary supplement", "assay_type": "in vivo, human", "design": "key to CARS-2 Total scores, After treatment / average of total CARS-2 score after treatment: sum of 15 items, 15 (normal) to 60; ≥30 = ASD", "excerpt": "Examples are described below for using ET to treat ASD-affected individuals. Each of the four individuals identified in the examples has various severity of ASD. The examples set forth herein are directed to the use of ET dietary supplement for a period of three months.\nThe examples below therefore adopted the CARS-2 system to evaluate ET treatment effects in four ASD individuals.\nTo obtain a CARS-2 score, each individual is rated on a scale of 1 (normal) to 4 (severely abnormal) with respect to each of the 15 criteria (“relationship to others”, “imitation”, “emotional response”, “body use”, “object use”, “adaptation to change”, “visual response”, “listening response”, “taste-smell-touch responses”, “fear and nervousness”, “verbal communication”, “non-verbal communication”, “activity level”, “level and reliability of intellectual responses”, and “general impressions”). A total score is obtained by combining all of 15 separate scores, ranging from 15 to 60. A score of 15 is normal. Scores below 30 are considered very mild or non-autistic; 30-36.5 are considered mild to moderate ASD and scores greater than 36.5 are considered severe ASD. The scoring can be provided by either primary care giver or the parents.\nMethod of treatment: ET (2 mg/kg bw per day, 54 mg daily) powder is dissolved in drinking water (200 mL). The individual is treated by ET for three months. ET has no color, no taste when dissolved in water.\nMethod of treatment: ET (2 mg/kg bw per day, 42 mg daily) powder is dissolved in drinking water (200 mL). The individual is treated by ET for three months.\nMethod of treatment: ET (1 mg/kg bw per day, 74 mg daily) powder is dissolved in drinking water (200 mL). The individual is treated by ET for three months."}, "[2]": {"settings": "Example 1, child, ET 2 mg/kg bw per day, three months, before treatment 1.5"}, "[3]": {"settings": "Example 1, child, ET 2 mg/kg bw per day, three months, before treatment 2"}, "[4]": {"settings": "Example 1, child, ET 2 mg/kg bw per day, three months, before treatment 2.5"}, "[5]": {"settings": "Example 1, child, ET 2 mg/kg bw per day, three months, before treatment 3"}, "[6]": {"settings": "Example 2, child, ET 2 mg/kg bw per day, three months, before treatment 1"}, "[7]": {"settings": "Example 2, child, ET 2 mg/kg bw per day, three months, before treatment 2"}, "[8]": {"settings": "Example 2, child, ET 2 mg/kg bw per day, three months, before treatment 3"}, "[9]": {"settings": "Example 3, child (ASD, Asperger's Syndrome), ET 2 mg/kg bw per day, three months, before treatment 1"}, "[10]": {"settings": "Example 3, child (ASD, Asperger's Syndrome), ET 2 mg/kg bw per day, three months, before treatment 1.5"}, "[11]": {"settings": "Example 3, child (ASD, Asperger's Syndrome), ET 2 mg/kg bw per day, three months, before treatment 2.5"}, "[12]": {"settings": "Example 4, person, ET 1 mg/kg bw per day, three months, before treatment 1"}, "[13]": {"settings": "Example 4, person, ET 1 mg/kg bw per day, three months, before treatment 2"}, "[14]": {"settings": "Example 4, person, ET 1 mg/kg bw per day, three months, before treatment 3"}, "[15]": {"settings": "Example 4, person, ET 1 mg/kg bw per day, three months, before treatment 4"}},
  "data": [
    {"smiles": "C[N+](C)(C)[C@@H](Cc1c[nH]c(=S)[nH]1)C(=O)O", "note": "[ET, ergothioneine]", "values": [
      {"measurement": "maximum allowed ET dosage based on the no-observed-adverse-effect level (NOAEL)", "setting": "[1]", "result": 800, "unit": "mg/kg bw per day"},
      {"measurement": "CARS-2 Activity level, After treatment", "setting": "ASD individuals; [2]", "result": 1.5},
      {"measurement": "CARS-2 Adaptation to change, After treatment", "setting": "ASD individuals; [2]", "result": 1.5},
      {"measurement": "CARS-2 Body use, After treatment", "setting": "ASD individuals; [2]", "result": 1.5},
      {"measurement": "CARS-2 Fear and nervousness, After treatment", "setting": "ASD individuals; [3]", "result": 1},
      {"measurement": "CARS-2 Imitation, After treatment", "setting": "ASD individuals; [3]", "result": 2},
      {"measurement": "CARS-2 Listening response, After treatment", "setting": "ASD individuals; [3]", "result": 2},
      {"measurement": "CARS-2 Non-verbal communication, After treatment", "setting": "ASD individuals; [3]", "result": 2},
      {"measurement": "CARS-2 Object use, After treatment", "setting": "ASD individuals; [3]", "result": 2},
      {"measurement": "CARS-2 Taste-smell-touch responses, After treatment", "setting": "ASD individuals; [3]", "result": 2},
      {"measurement": "CARS-2 Emotional response, After treatment", "setting": "ASD individuals; [4]", "result": 2},
      {"measurement": "CARS-2 Relationship to others, After treatment", "setting": "ASD individuals; [4]", "result": 2},
      {"measurement": "CARS-2 Visual response, After treatment", "setting": "ASD individuals; [4]", "result": 2.5},
      {"measurement": "CARS-2 General impressions, After treatment", "setting": "ASD individuals; [5]", "result": 2.5},
      {"measurement": "CARS-2 Level and consistency of intellectual response, After treatment", "setting": "ASD individuals; [5]", "result": 2},
      {"measurement": "CARS-2 Verbal communication, After treatment", "setting": "ASD individuals; [5]", "result": 2},
      {"measurement": "CARS-2 Total scores, After treatment", "setting": "ASD individuals; Example 1, child, ET 2 mg/kg bw per day, three months, before treatment 33", "result": 28.5},
      {"measurement": "CARS-2 Fear and nervousness, After treatment", "setting": "ASD individuals; [6]", "result": 1},
      {"measurement": "CARS-2 Taste-smell-touch responses, After treatment", "setting": "ASD individuals; [6]", "result": 1},
      {"measurement": "CARS-2 Adaptation to change, After treatment", "setting": "ASD individuals; [7]", "result": 2},
      {"measurement": "CARS-2 Body use, After treatment", "setting": "ASD individuals; [7]", "result": 2},
      {"measurement": "CARS-2 Emotional response, After treatment", "setting": "ASD individuals; [7]", "result": 2},
      {"measurement": "CARS-2 General impressions, After treatment", "setting": "ASD individuals; [7]", "result": 1.5},
      {"measurement": "CARS-2 Imitation, After treatment", "setting": "ASD individuals; [7]", "result": 2},
      {"measurement": "CARS-2 Level and consistency of intellectual response, After treatment", "setting": "ASD individuals; [7]", "result": 2},
      {"measurement": "CARS-2 Listening response, After treatment", "setting": "ASD individuals; [7]", "result": 1},
      {"measurement": "CARS-2 Object use, After treatment", "setting": "ASD individuals; [7]", "result": 2},
      {"measurement": "CARS-2 Visual response, After treatment", "setting": "ASD individuals; [7]", "result": 2},
      {"measurement": "CARS-2 Activity level, After treatment", "setting": "ASD individuals; [8]", "result": 3},
      {"measurement": "CARS-2 Non-verbal communication, After treatment", "setting": "ASD individuals; [8]", "result": 2},
      {"measurement": "CARS-2 Relationship to others, After treatment", "setting": "ASD individuals; [8]", "result": 2},
      {"measurement": "CARS-2 Verbal communication, After treatment", "setting": "ASD individuals; [8]", "result": 2},
      {"measurement": "CARS-2 Total scores, After treatment", "setting": "ASD individuals; Example 2, child, ET 2 mg/kg bw per day, three months, before treatment 32", "result": 27.5},
      {"measurement": "CARS-2 Adaptation to change, After treatment", "setting": "ASD individuals; [9]", "result": 1},
      {"measurement": "CARS-2 Body use, After treatment", "setting": "ASD individuals; [9]", "result": 1},
      {"measurement": "CARS-2 Emotional response, After treatment", "setting": "ASD individuals; [9]", "result": 1},
      {"measurement": "CARS-2 Level and consistency of intellectual response, After treatment", "setting": "ASD individuals; [9]", "result": 1},
      {"measurement": "CARS-2 Listening response, After treatment", "setting": "ASD individuals; [9]", "result": 1},
      {"measurement": "CARS-2 Non-verbal communication, After treatment", "setting": "ASD individuals; [9]", "result": 1},
      {"measurement": "CARS-2 Object use, After treatment", "setting": "ASD individuals; [9]", "result": 1},
      {"measurement": "CARS-2 Taste-smell-touch responses, After treatment", "setting": "ASD individuals; [9]", "result": 1},
      {"measurement": "CARS-2 Verbal communication, After treatment", "setting": "ASD individuals; [9]", "result": 1},
      {"measurement": "CARS-2 Fear and nervousness, After treatment", "setting": "ASD individuals; [10]", "result": 1},
      {"measurement": "CARS-2 General impressions, After treatment", "setting": "ASD individuals; [10]", "result": 1.5},
      {"measurement": "CARS-2 Visual response, After treatment", "setting": "ASD individuals; [10]", "result": 1},
      {"measurement": "CARS-2 Relationship to others, After treatment", "setting": "ASD individuals; Example 3, child (ASD, Asperger's Syndrome), ET 2 mg/kg bw per day, three months, before treatment 2", "result": 1},
      {"measurement": "CARS-2 Activity level, After treatment", "setting": "ASD individuals; [11]", "result": 3},
      {"measurement": "CARS-2 Imitation, After treatment", "setting": "ASD individuals; [11]", "result": 2.5},
      {"measurement": "CARS-2 Total scores, After treatment", "setting": "ASD individuals; Example 3, child (ASD, Asperger's Syndrome), ET 2 mg/kg bw per day, three months, before treatment 20.5", "result": 19},
      {"measurement": "diagnosis after ET treatment", "setting": "ASD individuals; Example 3, child, ET 2 mg/kg bw per day, three months", "result": "no longer ASD"},
      {"measurement": "CARS-2 Adaptation to change, After treatment", "setting": "ASD individuals; [12]", "result": 1},
      {"measurement": "CARS-2 Body use, After treatment", "setting": "ASD individuals; [12]", "result": 1},
      {"measurement": "CARS-2 Emotional response, After treatment", "setting": "ASD individuals; [12]", "result": 1},
      {"measurement": "CARS-2 Fear and nervousness, After treatment", "setting": "ASD individuals; [13]", "result": 1},
      {"measurement": "CARS-2 Non-verbal communication, After treatment", "setting": "ASD individuals; [13]", "result": 2},
      {"measurement": "CARS-2 Relationship to others, After treatment", "setting": "ASD individuals; [13]", "result": 2},
      {"measurement": "CARS-2 Visual response, After treatment", "setting": "ASD individuals; [13]", "result": 2},
      {"measurement": "CARS-2 General impressions, After treatment", "setting": "ASD individuals; [14]", "result": 2},
      {"measurement": "CARS-2 Imitation, After treatment", "setting": "ASD individuals; [14]", "result": 3},
      {"measurement": "CARS-2 Object use, After treatment", "setting": "ASD individuals; [14]", "result": 3},
      {"measurement": "CARS-2 Taste-smell-touch responses, After treatment", "setting": "ASD individuals; [14]", "result": 2.5},
      {"measurement": "CARS-2 Verbal communication, After treatment", "setting": "ASD individuals; [14]", "result": 2},
      {"measurement": "CARS-2 Listening response, After treatment", "setting": "ASD individuals; Example 4, person, ET 1 mg/kg bw per day, three months, before treatment 3.5", "result": 3},
      {"measurement": "CARS-2 Activity level, After treatment", "setting": "ASD individuals; [15]", "result": 4},
      {"measurement": "CARS-2 Level and consistency of intellectual response, After treatment", "setting": "ASD individuals; [15]", "result": 3},
      {"measurement": "CARS-2 Total scores, After treatment", "setting": "ASD individuals; Example 4, person, ET 1 mg/kg bw per day, three months, before treatment 37.5", "result": 31.5},
      {"measurement": "average of total CARS-2 score after treatment", "setting": "ASD individuals; examples 1-4, four individuals, decreased from 30.75, T=4.37, P=0.022 by paired student t-test", "result": 26.62}
    ]}
  ]
}
